Measured values reported in US4552877A, “Nb -Quaternary derivatives of sandwicine and isosandwicine methods and intermediate products in the manufacture of their derivatives and methods of using same and pharmaceutical compositions thereof” (Kali-Chemie Pharma GmbH, priority 1979, dated 1985).
Where a name gives a salt, the structure may show the parent alone. Read-outs that look alike come from different tables or passages of the source.

Key:
[1] = acute toxicity (LD50, 7th day after application); type: in vivo, mouse; conditions: mouse, in vivo, male NMRI-mice, mortality on 7th day
Procedure: (§1) The acute toxicity of the compounds is determined in male NMRI-mice (body weight range 18-22 g) after oral (p.o) and intraperitonal (i.p.) administration. The LD50 is defined as that dose in μmole/kg which causes a 50% mortality rate of the test animals on the 7th day after application. The calculation of the LD50 is carried out by probitanalysis (see L. Cavalli-Sforza, Grundbegriffe der Biometrie, Gustav Fischer Verlag, Stuttgart, (1964)).

[2] = test system: male NMRI-mice; experiment: minimum symptom dose (procedure of Campbell and Richter); type: in vivo, mouse; conditions: i.p., changes in behavior in 2 out of 3 mice
Procedure: The minimum symptom dose is determined in male NMRI-mice (body weight range 18-22 g) according to the procedure of Campbell and Richter (see D.E.S. Campbell and W. Richter, Acta Pharmacol Toxicol, 25 (1967), pp 345-363). The minimum symptom dose is defined as that dose in μmol/kg which after i.p. administration causes changes in behavior in 2 out of 3 mice. The minimum symptom dose is a measure for evaluating undesirable side effects.

[3] = test system: isolated left atria of female guinea pigs; experiment: functional refractory period (FRP) and contraction force (CF) in isolated left atria, double stimulus method of Govier; set-up: species or system guinea pig; conditions: for IC25 / EC25: Cavia porcellus, 0.3 h; for IC25: read-out: CF (concentration reducing contraction force to 75% of starting value); for EC25: read-out: FRP (concentration prolonging functional refractory period to 125% of starting value); for ratio between contraction force-reducing dose and functional refractory period-prolonging dose (CF/FRP): indication of the therapeutic range of the antiarrhythmic effect on the isolated organ, 18 min
Procedure: The prolongation of the functional refractory period (FRP) and the contraction force (CF) in the isolated left atria of female guinea pigs (albino Pirbright-white guinea pigs, body weight 300-400 g) are determined according to the double stimulus method of Govier (see W.C. Govier, J. Pharmakol. Exp. Ther. 148 (1965) pp 100-105). The concentrations which are given in the table below are the concentrations in μmol/l which 18 minutes after application leads to a prolongation of the functional refractory period to 125% or respectively to a reduction of the contraction force to 75% of the starting value. Furthermore, the ratio between contraction force-reducing dose and functional refractory period-prolonging dose is given. This ratio is an indication of the therapeutic range of the antiarrhythmic effect on the isolate organ (see K. Gref, Verh. Dtsch. Ges. Kreislaufforsch. 35 (1969) pp 88-97).

[4] = test system: male NMRI-mice; experiment: acute toxicity (LD50, 7th day after application); type: in vivo, mouse; conditions: mortality on 7th day, 10080 min; for LD50 p.o.: oral
Procedure: as §1

[5] = ip, intraperitoneal, read-out: LD50 i.p.
[6] = isolated guinea pig left atria, 18 minutes after application

## CCC1C2CC3C4N(C)c5ccc(Br)cc5C45CC(C2C5O)[N+]3(C)C1O (stereo not drawn) [Example 1.b, Nb-methyl-10-bromosandwicinium hydrogen tartrate]
[1]; [5]
  LD50 at 168 h: 325 µmol/kg
[1]; po, read-out: LD50 p.o.
  LD50 at 168 h: 1910 µmol/kg
[2]
  Min. Symptom-dose: 11 µmol/kg
[3]; [6]
  IC25: 20.2 µM
  EC25: 3.2 µM
[3]
  ratio between contraction force-reducing dose and functional refractory period-prolonging dose (CF/FRP): 6.4

## CCC[N+]12C(O)C(CC)C3CC1C1N(C)c4ccc(Br)cc4C14CC2C3C4O (stereo not drawn) [Example 2.b, Nb-n-propyl-10-bromosandwicinium hydrogen tartrate]
[1]; [5]
  LD50 at 168 h: 101 µmol/kg
[4]
  LD50 p.o.: 1133 µmol/kg
[2]
  Min. Symptom-dose: 42 µmol/kg
[3]; [6]
  IC25: 4.7 µM
  EC25: 1.4 µM
[3]
  ratio between contraction force-reducing dose and functional refractory period-prolonging dose (CF/FRP): 3.3

## CCCCCC[N+]12C(O)C(CC)C3CC1C1N(C)c4ccc(Br)cc4C14CC2C3C4O (stereo not drawn) [Example 4.b, Nb-n-hexyl-10-bromosandwicinium hydrogen tartrate]
[1]; [5]
  LD50 at 168 h: 112 µmol/kg
[1]; po, read-out: LD50 p.o.
  LD50 at 168 h: > 2300 µmol/kg
[2]
  Min. Symptom-dose: 39 µmol/kg
[3]; [6]
  IC25: 2 µM
  EC25: 4.3 µM
[3]
  ratio between contraction force-reducing dose and functional refractory period-prolonging dose (CF/FRP): 0.5

## CCC1C2CC3C4N(C)c5ccc(Br)cc5C45CC(C2C5O)[N+]3(CC(O)CN2CCCCC2)C1O (stereo not drawn) [Example 8, Nb-[2-hydroxy-3-(1-piperidinyl)propyl]-10-bromosandwicinium bishydrogen tartrate]
[1]; [5]
  LD50 at 168 h: 169 µmol/kg
[1]; po, read-out: LD50 p.o.
  LD50 at 168 h: 1190 µmol/kg
[2]
  Min. Symptom-dose: 59 µmol/kg
[3]; [6]
  IC25: 3.4 µM
  EC25: 8.3 µM
[3]
  ratio between contraction force-reducing dose and functional refractory period-prolonging dose (CF/FRP): 0.4

## CCC[N+]12C(O)C(CC)C3CC1C1N(C)c4ccc(Br)cc4C14CC2C3C4O (stereo not drawn) [Example 12.b, Nb-n-propyl-10-bromoisosandwicinium hydrogen tartrate]
[4]; intraperitoneal
  LD50 i.p.: 118 µmol/kg
[4]
  LD50 p.o.: 566 µmol/kg
[2]
  Min. Symptom-dose: 10 µmol/kg
[3]
  ratio between contraction force-reducing dose and functional refractory period-prolonging dose (CF/FRP): 3.6
[3]; [6]
  CF (concentration reducing contraction force to 75% of starting value): 6.5 µmol/L
  FRP (concentration prolonging functional refractory period to 125% of starting value): 1.8 µmol/L

## CCC[N+]12C(O)C(CC)C3CC1C1N(C)c4ccccc4C14CC2C3C4O (stereo not drawn) [Neo-Gilurytmal, Nb -propylajmalinium hydrogen tartrate, reference compound]
[1]; [5]
  LD50 at 168 h: 41 µmol/kg
[1]; po, read-out: LD50 p.o.
  LD50 at 168 h: 65 µmol/kg
[2]
  Min. Symptom-dose: 12 µmol/kg
[3]; [6]
  IC25: 0.26 µM
  EC25: 1.8 µM
[3]
  ratio between contraction force-reducing dose and functional refractory period-prolonging dose (CF/FRP): 0.15
